Assay [1] concerns IL-23 stimulated Kit225 T cells (STAT-dependent luciferase reporter). Description: Kit225 T cell assay, IL-23-stimulated STAT-dependent luciferase reporter. Type of assay: cell-based, human. To be noted: 20 ng/mL human recombinant IL-23, 5-6 hours, read-out: IL-23 Kit225 Reporter (IC50). The method, boiled down: (§1)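 Kit225 T cells carrying a stable STAT-dependent luciferase reporter, stimulated 5-6 h with 20 ng/mL human IL-23 or 200 U/mL human IFNα. Luminescence read out; % inhibition derived against unstimulated (100%) and no-inhibitor (0%) controls.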
Background: Reporter assays use an easily measured gene product as a stand-in for the process of interest.

Assay [2] deals with IFNα stimulated Kit225 T cells (STAT-dependent luciferase reporter). Description: Kit225 T cell assay, IFNα-stimulated STAT-dependent luciferase reporter. The note with it: 200 U/mL human recombinant IFNα, 5-6 hours, read-out: IFNα Kit225 Reporter (IC50). Type of assay: cell-based, human. The procedure, abridged: as §1
Assay [3] deals with His-tagged protein corresponding to amino acids 575-869 of human Tyk2 (Homo sapiens (Human), UniProt P29597). Description: Probe displacement assay (scintillation proximity, radiolabeled probe). It counts as binding. The note with it: 2.5 nM Tyk2 (575-869), 40 nM [3H] probe, 30 minutes at room temperature. As to the method:
The probe displacement assay is conducted as follows: In a […], test compounds along with recombinantly expressed His-tagged protein corresponding to amino acids 575-869 of human Tyk2 (sequence shown below) at 2.5 nM, 40 nM ((R)—N-(1-(3-(8-methyl-5-(methylamino)-8H-imidazo[4,5-d]thiazolo[5,4-b]pyridin-2-yl)phenyl)ethyl)-2-([^3H]methylsulfonyl)benzamide) (preparation described below) and 80 μg/mL Copper His-Tag scintillation proximity assay beads (Perkin Elmer, Catalog #RPNQ0095) in 50 mM HEPES, pH 7.5, containing 100 μg/mL bovine serum albumin and 5% DMSO were incubated for 30 minutes at room temperature.
Protein Sequence of recombinant Hig-tagged Tyk2 (575-869):
The preparation of radiolabeled probe, (R)—N-(1-(3-(8-methyl-5-(methylamino)-8H-imidazo[4,5-d]thiazolo[5,4-b]pyridin-2-yl)phenyl)ethyl)-2-([^3H]methylsulfonyl)benzamide, was performed as described below.

The structures appear in SMILES notation. Read-outs that look alike come from different tables or passages of the source.

This is an account of results in US11021475B2, “Amide-substituted heterocyclic compounds useful as modulators of IL-12, IL-23 and/or IFN alpha responses” (Bristol-Myers Squibb Company, priority 2012, dated 2021).

Broadly, the IC50 is the concentration that inhibits the measured activity by half. What is called EC50 is the midpoint of the concentration-response curve. Read a low EC50 as a more potent agent.

Sequence of His-tagged protein corresponding to amino acids 575-869 of human Tyk2 (P29597 other isoform, or with tags, fused parts or gaps): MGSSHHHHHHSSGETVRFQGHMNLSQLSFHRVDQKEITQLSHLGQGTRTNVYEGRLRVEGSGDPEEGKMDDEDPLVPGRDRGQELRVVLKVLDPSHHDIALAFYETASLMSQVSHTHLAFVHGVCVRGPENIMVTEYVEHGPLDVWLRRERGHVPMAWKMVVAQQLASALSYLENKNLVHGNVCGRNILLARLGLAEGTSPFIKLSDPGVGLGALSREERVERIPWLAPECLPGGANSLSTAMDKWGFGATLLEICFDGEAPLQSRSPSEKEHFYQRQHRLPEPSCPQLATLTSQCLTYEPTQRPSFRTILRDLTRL

Regarding `CCNC(=O)c1nnc(Nc2ccc(F)cn2)cc1Nc1ccccc1S(C)(=O)=O` [Example 4], the results for the IC50 in assay [1] and in assay [2] were 2300 nM and 1150 nM, respectively. In addition, the EC50 in assay [3] turned out to be 130 nM.

With `CS(=O)(=O)c1ccccc1Nc1cc(Nc2ccc(F)cn2)nnc1C(=O)NC1CC1` [Example 5], the IC50 is 12500 nM in assay [1] and 6360 nM in assay [2]. In assay [3], this compound showed a concentration for a half-maximal effect (EC50) of 410 nM.

As to `CNC(=O)c1nnc(Nc2ccccn2)cc1Nc1ccccc1S(C)(=O)=O` [Example 16], the IC50 in assay [1] worked out at 40 nM; in assay [2], 20 nM. In assay [3], the EC50 amounted to 6.57 nM.

On to `CNC(=O)c1nnc(Nc2cc(COC)ccn2)cc1Nc1ccccc1S(C)(=O)=O` [Example 51], for which the half-maximal inhibitory concentration (IC50) was determined as 40 nM in assay [1] and 20 nM in assay [2]. The same compound showed an EC50 in assay [3] of 7.19 nM.

As for `CNC(=O)c1nnc(NC(=O)C2CC2)cc1Nc1cccc(-c2ccc(C)nn2)c1OC` [Example 69], the figures for the IC50 in assay [1] and in assay [2] were 380 nM and 160 nM, respectively. The EC50 in assay [3] was 70 nM.

Consider `CNC(=O)c1nnc(Nc2ccccn2)cc1Nc1cccc(-c2nc(C)cs2)c1OC` [Example 73], for which the values for the IC50 in assay [1] and in assay [2] were 80 nM and 50 nM, respectively. For the same compound, in assay [3], the EC50 came to 5.21 nM.

As to `CNC(=O)c1nnc(Nc2ccccn2)cc1Nc1cccc(-c2ncn(C)n2)c1OC` [Example 76], the values for the IC50 in assay [1] and in assay [2] were 1.99 nM and 3.49 nM, respectively. In assay [3], this compound showed an EC50 of 6.17 nM.

Take `CNC(=O)c1nnc(Nc2cc(C(C)O)ccn2)cc1Nc1cccc(-c2ncn(C)n2)c1OC` (stereo not shown) [Example 84]: the concentration for half-maximal inhibition (IC50) in assay [1] was 20 nM; in assay [2], 9.39 nM. In addition, the 50% effective concentration (EC50) in assay [3] is 1.28 nM.

Regarding `CNC(=O)c1nnc(Nc2cc(C)n(C)n2)cc1Nc1cccc(-c2cnn(C)c2)c1OC` [Example 85], the IC50 was determined as 170 nM in assay [1] and 50 nM in assay [2]. Also, it took 7.36 nM to reach a half-maximal effect in assay [3] (EC50).

In the case of `CNC(=O)c1nnc(Nc2ccncn2)cc1Nc1cccc(-c2ncn(C)n2)c1OC` [Example 94], the half-inhibitory concentration (IC50) in assay [1] was 30 nM; in assay [2] it was 8.59 nM. In assay [3], this compound returned an EC50 of 1.72 nM.

Take `CNC(=O)c1nnc(Nc2ccc(CO)cn2)cc1Nc1cccc(-c2ncn(C)n2)c1OC` [Example 102]: the half-maximal inhibitory concentration (IC50) turned out to be 40 nM in assay [1] and 30 nM in assay [2]. Further, in assay [3], the EC50 was 1.59 nM.

With `CNC(=O)c1nnc(Nc2cc(C)nc(C)n2)cc1Nc1cccc(-c2ncn(C)n2)c1OC` [Example 108], the half-inhibitory concentration (IC50) worked out at 8.49 nM in assay [1] and 3.54 nM in assay [2]. This compound also gave a concentration giving a half-maximal response (EC50) in assay [3] of 1.46 nM.

Consider `CNC(=O)c1nnc(Nc2cnccn2)cc1Nc1cccc(-c2ncccn2)c1OC` [Example 112], for which the 50% inhibitory concentration (IC50) worked out at 7.49 nM in assay [1] and 3.72 nM in assay [2]. This compound also gave a half-maximal effective concentration (EC50) in assay [3] of 1.94 nM.

In the case of `CNC(=O)c1nnc(Nc2cc(C)nc(COC)n2)cc1Nc1cccc(-c2ncn(C)n2)c1OC` [Example 114], the IC50 was determined as 8.29 nM in assay [1] and 3.77 nM in assay [2]. In assay [3], this compound displayed a 50% effective concentration (EC50) of 1.89 nM.

Regarding `CNC(=O)c1nnc(NC(=O)C2CC2)cc1Nc1ccccc1OC` [Example 125], the concentration for half-maximal inhibition (IC50) in assay [1] came to 170 nM; in assay [2], 430 nM. This compound registered an EC50 in assay [3] of 110 nM.

Take `CNC(=O)c1nnc(Nc2cc(NC(=O)C3CC3)nc(C)n2)cc1Nc1cccc(-c2ncn(C)n2)c1OC` [Example 134]: the IC50 was 30 nM in assay [1] and 10 nM in assay [2]. The compound also had a half-maximal effective concentration (EC50) in assay [3] of 5.64 nM.

For the compound `CNC(=O)c1nnc(Nc2cc(C)c(F)cn2)cc1Nc1cccc(-c2n[nH]c(C)n2)c1OC` [Example 142], the figures for the IC50 in assay [1] and in assay [2] were 6.59 nM and 4.3 nM, respectively. Further, the 50% effective concentration (EC50) in assay [3] stood at 6.95 nM.

For `CNC(=O)c1nnc(NC(=O)C2CC2)cc1Nc1cccc(-c2nnn(C)n2)c1OC` [Example 146], the concentration for half-maximal inhibition (IC50) in assay [1] is 10 nM; in assay [2], 5.33 nM. Besides, the EC50 in assay [3] was found to be 1.7 nM.

With `CNC(=O)c1nnc(Nc2ccccn2)cc1Nc1cccc(-c2nnn(C)n2)c1OC` [Example 147], the IC50 in assay [1] stood at 1.01 nM; in assay [2], 4.42 nM. In addition, it took 0.877 nM to reach a half-maximal effect in assay [3] (EC50).

As to `CNC(=O)c1nnc(Nc2ccccn2)cc1Nc1cccc(-c2nnc(C)o2)c1OC` [Example 151], the IC50 in assay [1] and in assay [2] was 20 nM each time. This compound came in with a half-maximal effective concentration (EC50) in assay [3] of 7.22 nM.

For the compound `CNC(=O)c1nnc(NC(=O)C2CC2)cc1Nc1cccc(-c2nnc(C)s2)c1OC` [Example 154], the values for the 50% inhibitory concentration (IC50) in assay [1] and in assay [2] were 590 nM and 430 nM, respectively. The response in assay [3] was half-maximal at 90 nM (EC50).

As for `CNC(=O)c1nnc(Nc2ccccn2)cc1Nc1cccc(-c2nnc(C)s2)c1OC` [Example 155], the IC50 in assay [1] and in assay [2] was 30 nM throughout. This compound also yielded an EC50 in assay [3] of 7.13 nM.

For the compound `CNC(=O)c1nnc(NC(=O)C2CC2)cc1Nc1cccc(-c2cnc(C)s2)c1OC` [Example 160], the figures for the IC50 in assay [1] and in assay [2] were 410 nM and 310 nM, respectively. The EC50 in assay [3] stood at 70 nM.

Take `CNC(=O)c1nnc(NC(=O)C2CC2)cc1Nc1cccc(-c2ncn(CC(F)F)n2)c1OC` [Example 176]: the half-maximal inhibitory concentration (IC50) in assay [1] was 40 nM; in assay [2], 20 nM. Besides, a half-maximal response in assay [3] (EC50) required 6.35 nM.

As for `CNC(=O)c1nnc(Nc2cc(C)nc(C)n2)cc1Nc1cccc(-c2nc(C)n(C)n2)c1OC` [Example 183], the 50% inhibitory concentration (IC50) was found to be 30 nM in assay [1] and 3.67 nM in assay [2]. A half-maximal effect in assay [3] (EC50) was put at 5.72 nM.

Regarding `CNC(=O)c1nnc(NC(=O)C2CC2)cc1Nc1cccc(-c2cnn(CCF)c2)c1OC` [Example 186], the 50% inhibitory concentration (IC50) is 170 nM in assay [1] and 80 nM in assay [2]. Besides, the concentration giving a half-maximal response (EC50) in assay [3] amounted to 60 nM.

For `CNC(=O)c1nnc(NC(=O)C2CC2)cc1Nc1cccc(-c2cc(C)no2)c1OC` [Example 194], the results for the 50% inhibitory concentration (IC50) in assay [1] and in assay [2] were 630 nM and 410 nM, respectively. In assay [3], the EC50 amounted to 80 nM.

Regarding `CNC(=O)c1nnc(Nc2ccccn2)cc1Nc1cccc(-c2ccnn2C)c1OC` [Example 199], the half-inhibitory concentration (IC50) was found to be 190 nM in assay [1] and 230 nM in assay [2].

Take `[2H]C([2H])([2H])NC(=O)c1nnc(NC(=O)C2CC2)cc1Nc1cccc(-c2cc(C)[nH]n2)c1OC` [Example 200]: the IC50 is 80 nM in assay [1] (KIT225) and 30 nM in assay [2] (KIT225).

Take `COc1c(Nc2cc(NC(=O)C3CC3)nnc2C(N)=O)cccc1-c1ncn(C)n1` [Example 201]: the IC50 in assay [1] turned out to be 20 nM; in assay [2], 4.13 nM.

Turning to `[2H]C([2H])([2H])NC(=O)c1nnc(NC(=O)C2CC2)cc1Nc1cccc(C#N)c1OC` [Example 202, 4-((3-cyano-2-methoxyphenyl)amino)-6-(cyclopropanecarboxamido)-N-trideuteromethylpyridazine-3-carboxamide], the results for the IC50 in assay [1] (KIT225) and in assay [2] (KIT225) were 290 nM and 330 nM, respectively.

In the case of `CNC(=O)c1nnc(Nc2ccccn2)cc1Nc1cccc(-c2nnc(C)o2)c1SC` [Example 203], the IC50 in assay [1] was 310 nM; in assay [2], 110 nM.

Take `CNC(=O)c1nnc(Nc2ccccn2)cc1Nc1cccc(-c2nnc[nH]2)c1SC` [Example 204, N-methyl-4-((2-(methylthio)-3-(4H-1,2,4-triazol-3-yl)phenyl)amino)-6-(pyridin-2-ylamino)pyridazine-3-carboxamide]: the IC50 in assay [1] (KIT225) amounted to 70 nM; in assay [2] (KIT225), 20 nM.

Take `CNC(=O)c1nnc(Nc2ccccn2)cc1Nc1cccc(-c2ncn(C)n2)c1SC` [Example 205]: the IC50 in assay [1] (KIT225) is 140 nM; in assay [2] (KIT225) it was 50 nM.

For the compound `CNC(=O)c1nnc(Nc2ccccn2)cc1Nc1cccc(-c2noc(C)n2)c1OC` [Example 206], the figures for the half-inhibitory concentration (IC50) in assay [1] (KIT225) and in assay [2] (KIT225) were 4.38 nM and 0.712 nM, respectively.
